{"source": "paper PMC11892739", "about": "“Site-specific molecular glues for the 14-3-3/Tau pS214 protein–protein interaction via reversible covalent imine tethering” (RSC Medicinal Chemistry, 2025)", "key": {"14-3-3ζ": {"target": "14-3-3ζ", "design": "method as in doi:10.1101/2024.03.15.585148", "conditions": "FA assay, binary complex; read-out: KD of bivalent Tau pS2 peptide to 14-3-3ζ; cited from earlier work"}, "14-3-3ζ/Tau pS2 peptide": {"target": "T1, 14-3-3ζ/Tau pS2 peptide (Homo sapiens, UniProt P63104)", "T1 construct": "made in house; host or cells: NiCo21 (DE3) E. coli", "T1 sequence (P63104 1-245)": "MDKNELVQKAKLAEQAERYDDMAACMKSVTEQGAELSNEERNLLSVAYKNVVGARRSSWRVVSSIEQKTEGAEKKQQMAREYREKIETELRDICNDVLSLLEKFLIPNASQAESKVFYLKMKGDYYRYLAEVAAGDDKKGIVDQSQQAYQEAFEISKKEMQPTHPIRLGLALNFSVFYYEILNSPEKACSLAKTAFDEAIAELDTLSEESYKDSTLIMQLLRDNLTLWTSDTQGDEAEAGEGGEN", "assay": "Differential scanning fluorimetry of 14-3-3 with Tau pS2 peptide and compounds", "type": "binding", "conditions": "10-fold excess of Tau pS2 peptide relative to 14-3-3ζ", "description": "Fig. 3 a Dose–response fluorescence anisotropy data of compound titrations to 10 nM FITC-labeled Tau pS2 peptide and 100 nM 14-3-3ζ. […] Mean of three individually performed experiments (see ESI ^† Fig. S8 for the protein titrations). e Differential scanning fluorimetry assay results. Identified melting temperatures (Tm) of 14-3-3γ alone (2.5 μM) and in the presence of Tau pS2 peptide (25 μM) and additionally with selected compounds (75 μM).\nAs an orthogonal method to profile the PPI stabilizing activity of selected compounds, differential scanning fluorimetry (DSF) assays were performed (Fig. 3e). […] Upon addition of compounds (1, 11, 13–14, and 20–22) to this PPI complex (30-fold compared to 14-3-3ζ), an additional increase in melting temperature between 0.9 °C and 2.1 °C was observed relative to the binary 14-3-3ζ/Tau pS2 peptide system. These observations are in agreement with the stabilization observed in the FA data and strongly testify to the molecular glue effect of our compound, by enhancing the stability of the PPI complex. […]\nchromatography (HisTrap high performance cartridges, Cytiva). Typically two 5 mL columns were used for a 2 L culture in which the lysate was loaded on the column, washed with 10 CV wash buffer (50 mM Hepes, pH 8.0, 300 mM NaCl, 25 mM imidazole, 2 mM βME), and eluted with several fractions (2-4 CV) of elution buffer (50 mM Hepes, pH 8.0, 300 mM NaCl, 250 mM imidazole, 2 mM βME). Fractions containing the 14-3-3 protein were combined and dialyzed into 25 mM HEPES pH 8.0, 200 mM NaCl, 10 mM MgCl2, 2 mM βME, followed by dialysis into 25 mM HEPES, 100 mM NaCl, 10 mM MgCl2, 500 μM TCEP (adjusted to pH 8.0). Dialyzed protein was concentrated to ∼40 mg/mL, analyzed by Q -Tof LC/MS, and aliquots were flash -frozen for storage at −80 °C. For 14 -3-3σ∆c, 1 mg TEV per 100 mg purified protein was added to the dialysis to remove the purification tag. The cleaved sample was then again loaded on a 10 mL Ni-NTA column to separate the cleaved product from the expression tag and residual uncleaved protein. The flowthrough was loade d on a Superdex 75 pg 16/60 size exclusion column (GE Life Sciences) using 25 mM HEPES, 100 mM NaCl, 10 mM MgCl2, 500 μM TCEP (adjusted to pH = 8.0) as running buffer. Fractions containing the 14 -3-3 protein were pooled and concentrated to ∼60 mg/mL, analyzed Q -Tof LC/MS, and aliquots were flash -frozen for storage at −80°C. […]\nThe peptide screen was performed in a similar way as the 14-3-3ζ titration in the precence of compound.\n14-3-3ζ was titrated in a 2-fold dilution series (starting at 400 µM 14-3-3ζ) to 100 nM of fluorescein-labeled peptides and 250 µM compound 18 (1% DMSO) in FA buffer (10 mM HEPES pH 7.4, 150 mM […]\nData shown is the average of a scientific triplicate.\nDifferential Scanning Fluorimetry (DSF)\nDSF was performed using 40 µl samples containing 2.5 µM 14 -3-3ζ, 25 µM Tau peptide (Tau pS2, Tau pS214 or Tau pS324), […] (1% DMSO) and 5x ProteoOrange (Lumiprobe, 5000x stock in DMSO) in 10 mM HEPES, 150 mM NaCl, 50 µM TCEP (pH 7.4). The samples were heated from 35 °C to 79°C at a rate of 0.3 °C per 15 s in a C FX96 Touch Real-Time PCR Detection System (Bio -Rad). Fluorescence intensity was determined using excitation ( λem=525/20 nm) and emission ( λex=570/20 nm) filters.\nBased on these melting curves, the negative derivative melting curve is obtained from which the melting temperature Tm was determined. All described melting temperatures are based on two or three independent experiments, from which the average and standard deviations were determined.\nX-ray crystallography data collection and refinement\nFor x-ray crystallography, a C-terminally truncated 14-3-3σ protein (truncated after T231 to reduce flexibility) was used. This 14-3-3σ∆C was preincubated with Tau pS214 in complexation buffer (20 mM HEPES pH 7.5, 2 mM MgCl2 and 100 μM TCEP) in a 1:1.5 molar stoichiometry (protein:peptide) at a final protein concentration of 10.0 mg/mL. […]"}}, "note": "Square brackets hold non-standard residues; d marks the D form. Ends that are not written are not given here. pS = N[C@@H](COP(=O)(O)O)C(=O)O"}
{"substance": "Tau pS2 peptide: bivalent Tau peptide phosphorylated at S214 + S324: SRTP{pS}LPTPPTREGGGSGGGSGGGVTSKCG{pS}LGNIHHK (chain 1 SRTP[pS]LPTPPTREGGGSGGGSGGGVTSKCG[pS]; numbers in words are those of the source; also: chains 1 and 2 are one continuous peptide joined through pS324) [reference compound]", "values": [{"measurement": "Kd", "setting": "14-3-3ζ", "result": "945 ± 70", "unit": "nM"}, {"measurement": "ΔTm, increase of 14-3-3 melting temperature compared to apo-14-3-3ζ", "setting": "14-3-3ζ/Tau pS2 peptide", "result": "~0.6", "unit": "°C"}]}
